From ChEMBL document CHEMBL1201862, “PubChem BioAssay data set” (2004) come the findings set out here.

SMILES strings stand for the structures. Several values for one entry are separate records, joined by “and”; a condition that tells them apart may be missing. Identical values can stand only once.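 Assay format: 96-well plates, 48-hour exposure. GI50 is the concentration that inhibits growth by half.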 Activity calls are given as the source filed them. Cut-off read from the data, not from the text of the source: active = GI50 up to about 1.1 µM and inactive = higher.

Among the test systems are LOX IMVI; SK-OV-3; UACC-62; SF-295; OVCAR-8; SW-620; NCI-H226; RXF 393; SN12C; NCI-H460; SK-MEL-28; NCI-H522; HCC 2998; 786-0; HOP-92; SR.
Experiment in all cases: NCI anticancer screen, dose series, 48 h

On to `N#Cc1ccc(OCCSCCCCCCCCCCSCCOc2ccc(C#N)cc2)cc1`, for which the GI50 in the test with LOX IMVI is > 100 µM (inactive); in the test with SK-OV-3, > 100 µM (inactive); in the test with UACC-62, > 100 µM (inactive); with SF-295 it was 22.6 µM (inactive); in the test on OVCAR-8 it was > 100 µM (inactive); in the test on SW-620, > 100 µM (inactive). The GI50 in the test with NCI-H226 is > 100 µM (inactive); with RXF 393, > 100 µM (inactive); with SN12C, > 100 µM (inactive); in the test with NCI-H460, > 100 µM (inactive); with SK-MEL-28, > 100 µM (inactive); in the test with NCI-H522 it was 29.6 µM (inactive). The GI50 in the test with HCC 2998 and in the test on 786-0 was > 100 µM (inactive) throughout.
In the case of `NC(=S)N/N=C1\CCCC\C1=C/c1ccccc1`, the GI50 with LOX IMVI was > 100 µM (inactive); with SK-OV-3 it was > 100 µM (inactive); in the test with UACC-62, 57.7 µM (inactive); with SF-295 it was > 100 µM (inactive); in the test on OVCAR-8, > 100 µM (inactive); with SW-620, 72.6 µM (inactive). Also, the GI50 is 23.8 µM (inactive) in the test on RXF 393; 39.5 µM (inactive) in the test on SN12C; > 100 µM (inactive) in the test with NCI-H460; > 100 µM (inactive) in the test on SK-MEL-28; 18.7 µM (inactive) in the test on NCI-H522; 47.2 µM (inactive) with HOP-92. The GI50 with HCC 2998 was > 100 µM (inactive); in the test on 786-0 it was 63.8 µM (inactive).
For the compound `N=C(N)n1ncc(Cl)c(Cl)c1=O`, the GI50 was 17.9 µM (inactive) in the test on SK-OV-3; 2.48 µM (inactive) in the test on UACC-62; 10.8 µM (inactive) in the test on SF-295; 2.15 µM (inactive) with OVCAR-8; 1.88 µM (inactive) in the test on SW-620; 5.25 µM (inactive) in the test on NCI-H226. The GI50 in the test on SN12C was 2.69 µM (inactive); with NCI-H460 it was 5.97 µM (inactive); in the test with SK-MEL-28 it was 2.32 µM (inactive); in the test on NCI-H522, 1.79 µM (inactive); with HOP-92 it was 2.43 µM (inactive); in the test with 786-0, 2.76 µM (inactive).
Turning to `NCCCNCCSSC/C=C\CSSCCNCCCN`, the GI50 in the test with LOX IMVI is 45.2 µM (inactive) and 43.3 µM (inactive); in the test on SK-OV-3, > 100 µM (inactive); in the test on UACC-62, 36.3 µM (inactive) and 52.8 µM (inactive); in the test on OVCAR-8, > 100 µM (inactive); in the test on SW-620, 44.4 µM (inactive) and 31.1 µM (inactive); with SN12C, 75.7 µM (inactive) and 44.4 µM (inactive). For the same compound, the GI50 with NCI-H460 was > 100 µM (inactive); with SK-MEL-28, > 100 µM (inactive); with NCI-H522, 10.3 µM (inactive) and 13.2 µM (inactive); with HOP-92 it was 18.9 µM (inactive) and 23 µM (inactive); in the test on HCC 2998, 90.6 µM (inactive); in the test on 786-0, > 100 µM (inactive).
`CCOC(=O)C1N(S(=O)(=O)c2ccc(C)cc2)CCC12c1ccccc1N(C(C)=O)C2C(/C=C/C(=O)OC)=C/C(=O)OC` (configuration not stated): the GI50 in the test on LOX IMVI, in the test with SK-OV-3, with UACC-62, in the test on SF-295, in the test on OVCAR-8 and in the test with SW-620 was > 100 µM (inactive) in each case. The GI50 in the test on NCI-H226, in the test on RXF 393, in the test with SN12C, in the test with NCI-H460, with SK-MEL-28 and in the test with NCI-H522 was > 100 µM (inactive) throughout. Also, the GI50 with HOP-92 is 44.1 µM (inactive); with HCC 2998 it was > 100 µM (inactive); in the test on 786-0, > 100 µM (inactive).
With `COC(=O)C1C(=O)N(CCc2c[nH]c3ccccc23)C[C@@H]2CCC(=O)C[C@H]12` (some centres not stated), the GI50 in the test on LOX IMVI, with SK-OV-3, in the test with UACC-62, with SF-295, in the test with OVCAR-8 and in the test on SW-620 was > 100 µM (inactive) each time. The GI50 with RXF 393, in the test on SN12C, with NCI-H460, in the test on SK-MEL-28, in the test on NCI-H522 and with HOP-92 was > 100 µM (inactive) throughout. For the same compound, the GI50 with HCC 2998 and in the test on 786-0 was > 100 µM (inactive) each time.
`O=C(CN(c1ccccc1)c1ccccc1)N1c2ccccc2C2C=CC=CC21` (configuration not stated): the GI50 with LOX IMVI was 18.2 µM (inactive); in the test with SK-OV-3 it was 23.6 µM (inactive); in the test with UACC-62, 21.1 µM (inactive); in the test with SF-295 it was 24.5 µM (inactive); in the test on OVCAR-8, 20.7 µM (inactive); in the test with SW-620 it was 23.7 µM (inactive). Further, the GI50 with NCI-H226 is 18.5 µM (inactive); in the test on RXF 393, 30.5 µM (inactive); with SN12C it was 8.34 µM (inactive); in the test with NCI-H460, 19.3 µM (inactive); in the test on SR, 0.579 µM (active); in the test with SK-MEL-28 it was 30.4 µM (inactive). For the same compound, the GI50 was 18 µM (inactive) in the test on NCI-H522 and 22.6 µM (inactive) with 786-0.
Consider `O=C(CCC(=O)C1Cc2ccccc2C1=O)Nc1cccc(C(F)(F)F)c1` (configuration not stated), for which the GI50 in the test on LOX IMVI, in the test with SK-OV-3, in the test on UACC-62, in the test on SF-295, in the test on OVCAR-8 and in the test on SW-620 was > 100 µM (inactive) each time. Moreover, the GI50 is > 100 µM (inactive) with NCI-H226; > 100 µM (inactive) in the test with RXF 393; > 100 µM (inactive) in the test with SN12C; > 100 µM (inactive) with NCI-H460; > 10 µM (inactive) with SK-MEL-28; > 100 µM (inactive) in the test on HOP-92. Also, the GI50 in the test on HCC 2998 and with 786-0 was > 100 µM (inactive) in each case.
In the case of `COC1(OC)CCCCC2c3cccc(OC(C)=O)c3C21OC(C)=O` (configuration not stated), the GI50 in the test on LOX IMVI, with SK-OV-3, with UACC-62, in the test on SF-295, in the test with OVCAR-8 and in the test with SW-620 was > 100 µM (inactive) each time. Moreover, the GI50 was > 100 µM (inactive) in the test on NCI-H226; > 100 µM (inactive) with SN12C; > 10 µM (inactive) in the test with NCI-H460; 59.2 µM (inactive) in the test on SR; > 100 µM (inactive) in the test on SK-MEL-28; > 100 µM (inactive) in the test with NCI-H522. Also, the GI50 in the test with HCC 2998 and in the test with 786-0 was > 100 µM (inactive) throughout.
With `CCOc1ccccc1NC(=O)C(=O)CC(=O)c1c(C)[n+]([O-])c2ccccc2[n+]1[O-]`, the GI50 is 99.3 µM (inactive) with LOX IMVI; > 100 µM (inactive) in the test on SK-OV-3; > 100 µM (inactive) in the test on UACC-62; > 100 µM (inactive) in the test with SF-295; > 100 µM (inactive) in the test on OVCAR-8; > 100 µM (inactive) in the test on SW-620. For the same compound, the GI50 in the test with NCI-H226 is > 100 µM (inactive); in the test with RXF 393, > 100 µM (inactive); in the test on SN12C, > 100 µM (inactive); with NCI-H460 it was 81.7 µM (inactive); in the test with SK-MEL-28, > 100 µM (inactive); in the test with NCI-H522 it was 84.5 µM (inactive). In addition, the GI50 in the test on HOP-92, with HCC 2998 and with 786-0 was > 100 µM (inactive) each time.
On to `CCOC(=O)C(C)(C)Oc1ccc2c(=O)cc(-c3ccccc3)oc2c1`, for which the GI50 in the test with LOX IMVI is 17.5 µM (inactive); with SK-OV-3, > 100 µM (inactive); in the test on UACC-62 it was 18.2 µM (inactive); with SF-295, 26.5 µM (inactive); with OVCAR-8, 23 µM (inactive); in the test with SW-620, 22.8 µM (inactive). In addition, the GI50 was 22.8 µM (inactive) in the test on NCI-H226; 21.2 µM (inactive) in the test with RXF 393; 32.1 µM (inactive) with SN12C; 27.7 µM (inactive) in the test with NCI-H460; 16.7 µM (inactive) in the test with SK-MEL-28; 13.9 µM (inactive) in the test on NCI-H522. Besides, the GI50 in the test on HCC 2998 was > 100 µM (inactive); with 786-0 it was 16.3 µM (inactive).
For `O=C(Nc1ccc(Cl)c(Cl)c1)C1C(=O)N(c2ccc(Cl)c(Cl)c2)C(=O)/C1=N\O` (configuration not stated), the GI50 in the test on LOX IMVI was 24.5 µM (inactive); in the test on SK-OV-3, > 100 µM (inactive); in the test on UACC-62, > 100 µM (inactive); with SF-295, 73.5 µM (inactive); with OVCAR-8, > 100 µM (inactive); with SW-620 it was 49 µM (inactive). Besides, the GI50 in the test on NCI-H226 was 50.5 µM (inactive); in the test with SN12C, 61.8 µM (inactive); with SK-MEL-28, 25.6 µM (inactive); in the test with NCI-H522, 27.4 µM (inactive); with HOP-92 it was > 100 µM (inactive); with HCC 2998, > 100 µM (inactive). In addition, in the test with 786-0, the GI50 is 44.5 µM (inactive).
With `NC(=O)c1ccc(Cl)c([N+](=O)[O-])c1`, the GI50 with LOX IMVI, in the test with SK-OV-3, in the test on UACC-62, in the test on SF-295, with OVCAR-8 and with SW-620 was > 100 µM (inactive) in each case. The GI50 in the test with NCI-H226 was > 100 µM (inactive); in the test on RXF 393 it was > 100 µM (inactive); in the test with SN12C it was > 100 µM (inactive); in the test with NCI-H460 it was > 100 µM (inactive); in the test with SK-MEL-28, > 100 µM (inactive); in the test on NCI-H522, 48.9 µM (inactive). In addition, the GI50 in the test with HOP-92, in the test with HCC 2998 and in the test with 786-0 was > 100 µM (inactive) throughout.
Turning to `COC(=O)c1c/c(=N\NC(=O)CC(=O)Nc2ccccc2OC)c2ccccc2o1`, the GI50 in the test on LOX IMVI was 66.8 µM (inactive); with SK-OV-3 it was > 100 µM (inactive); with UACC-62, > 100 µM (inactive); in the test on SW-620, > 100 µM (inactive); in the test on NCI-H226 it was > 100 µM (inactive); in the test with SN12C, > 100 µM (inactive). The GI50 with NCI-H460 is 76 µM (inactive); with SR, > 100 µM (inactive); with SK-MEL-28, > 100 µM (inactive); in the test with NCI-H522, > 100 µM (inactive); in the test with HCC 2998, 93.1 µM (inactive); in the test on 786-0, 66.4 µM (inactive).
